Data from article PMC9737648, “Novel Approaches for the Solid-Phase Synthesis of Dihydroquinazoline-2(1H)-One Derivatives and Biological Evaluation as Potential Anticancer Agents” (Molecules, 2022).

Assays:
[1] = DPPH• free radical scavenging assay; conditions: concentration required to scavenge 50% of the DPPH; 30 min in the dark
Method: The quinazolinone derivatives were evaluated for their free radical scavenging activity at 320, 160, 80, 40, 20, and 10 µM concentration using the DPPH radical method, with ascorbic acid as the positive control (Table 3).
The antiradical activity of the compounds was estimated according to a slight modification of the procedure reported by Morales and Jimenez-Perez. […] Each sample (100 μL) at a different concentration was added to a freshly prepared solution of 1,1-diphenyl-2-picrylhydrazyl (DPPH•) radical (0.2 mM, 100 μL). The mixtures (200 μL) were placed in a 96-well microplate, shaken vigorously, and then left to stand for 30 min in the dark. Then, absorbance was immediately measured at a wavelength of 517 nm. Vc was used as the standard. The antiradical activity for each compound was determined in the Vc equivalent antioxidant capacity. The DPPH• solution in the presence of ethanol and in the absence of compounds was tested and used as a negative control. […] In all experiments, the samples were analyzed in triplicate, and activity for each compound was presented as the mean value ± SEM and used for evaluation of structure–activity relationships. […] Absorbance was taken at 520 nm using a microplate reader (Tecan, Männedorf, Switzerland).

[2] = system: human hepatic stellate cells (LX-2); experiment: MTT cytotoxicity assay, LX-2 normal control; assay type: cell-based; conditions: Homo sapiens, 72-h incubation
Method: (§1) The above cells were tested for cytotoxicity to identify the most promising antitumor drug among the synthesized quinazolinone derivatives.
(§2) An MTT assay was used to evaluate the in vitro cytotoxicity of the new compounds. The MTT assay depends on the reduction of soluble 3-([…])-2,5-diphenyl-tetrazolium bromide (MTT) into a blue purple formazan product, mainly by mitochondrial reductase activity inside living cells. […] The cells were suspended in growth medium and plated in 96-well culture plates at a density of 4 × 10^4 cells/well and incubated at 37 °C in a 5% CO2 incubator. […] Each experiment was performed at least 3 times.

[3] = system: ovarian cancer cells (A2780); experiment: MTT cytotoxicity assay, A2780; assay type: cell-based, human; conditions: Homo sapiens, A2780, 72 h, 72-h incubation
Method: as §1, §2

[4] = system: human liver cancer cells (HepG-2); experiment: MTT cytotoxicity assay, HepG-2; assay type: cell-based; conditions: Homo sapiens, HepG2, 72 h, 72-h incubation
Method: as §1, §2

[5] = system: breast cancer cells (MDA-MB-231); experiment: MTT cytotoxicity assay, MDA-MB-231; assay type: cell-based, human; conditions: Homo sapiens, 72-h incubation
Method: as §1, §2

Question: Which results are given for `CN1C(=O)N(S(=O)(=O)c2ccccc2F)C(CC(N)=O)c2cc(NS(=O)(=O)c3ccccc3F)ccc21` (centres unmarked) [CA7-b′, 2-{6-[(2-fluorophenyl)sulfonamido]-3-[(2-fluorophenyl)sulfonyl]-1-methyl-2-oxo-1,2,3,4-tetrahydroquinazolin-4-yl}acetamide]?
Answer: IC50 [1]: > 1000 µM; IC50 [2]: > 100 µM; IC50 [3]: > 100 µM; IC50 [4]: 95.3 ± 5.47 µM; IC50 [5]: > 100 µM
